Assay results reported in ChEMBL document CHEMBL1144755, “Co-existence of alpha-glucosidase-inhibitory and liver X receptor-regulatory activities and their separation by structural development” (Bioorg Med Chem, 2008).
The source made the active and inactive calls. No cut-off for these calls is given here.

Experiments:
[1] = biological target: T1, Oxysterols receptor LXR-beta (Homo sapiens, UniProt P55055); test: Antagonist activity at human recombinant LXRbeta expressed in HEK293 cells by luciferase reporter gene assay; assay type: functional, cell-based
T1 sequence (P55055 whole entry): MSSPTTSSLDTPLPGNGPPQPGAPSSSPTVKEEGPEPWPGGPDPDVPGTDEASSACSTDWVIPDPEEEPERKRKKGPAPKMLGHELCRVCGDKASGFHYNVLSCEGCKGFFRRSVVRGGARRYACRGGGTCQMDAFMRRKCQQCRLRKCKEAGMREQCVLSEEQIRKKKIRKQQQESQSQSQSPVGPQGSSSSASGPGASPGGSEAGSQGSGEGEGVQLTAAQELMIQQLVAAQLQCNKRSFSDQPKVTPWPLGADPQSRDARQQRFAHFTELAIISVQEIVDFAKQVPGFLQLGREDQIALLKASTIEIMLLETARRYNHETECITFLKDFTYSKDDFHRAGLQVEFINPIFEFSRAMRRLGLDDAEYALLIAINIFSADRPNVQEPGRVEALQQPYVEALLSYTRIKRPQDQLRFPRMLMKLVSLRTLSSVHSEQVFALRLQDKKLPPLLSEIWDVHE

[2] = biological target: T2, Oxysterols receptor LXR-alpha (Homo sapiens, UniProt Q13133); test: Antagonist activity at human recombinant LXRalpha expressed in HEK293 cells by luciferase reporter gene assay; assay type: functional, cell-based
T2 sequence (Q13133 whole entry): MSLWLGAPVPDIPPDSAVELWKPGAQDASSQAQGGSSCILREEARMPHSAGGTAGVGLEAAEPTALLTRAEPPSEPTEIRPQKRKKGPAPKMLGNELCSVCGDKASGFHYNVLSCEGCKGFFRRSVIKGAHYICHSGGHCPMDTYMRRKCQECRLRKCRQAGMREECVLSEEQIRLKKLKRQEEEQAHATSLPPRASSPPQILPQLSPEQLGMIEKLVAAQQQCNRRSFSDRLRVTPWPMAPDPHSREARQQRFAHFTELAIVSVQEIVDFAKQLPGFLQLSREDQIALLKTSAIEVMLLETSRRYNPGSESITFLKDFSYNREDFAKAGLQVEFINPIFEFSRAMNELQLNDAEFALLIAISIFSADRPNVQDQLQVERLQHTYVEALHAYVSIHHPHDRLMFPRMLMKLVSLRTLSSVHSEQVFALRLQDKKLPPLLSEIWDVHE

[3] = Agonist activity at LXR; assay type: functional
[4] = Inhibition of Saccharomyces sp. alpha-glucosidase

SMILES | IC50 [1] | IC50 [2] | IC50 [4] | Activity [3]
O=S(=O)(c1ccccc1)N(CC(F)(F)F)c1ccc(C(O)(C(F)(F)F)C(F)(F)F)cc1 [T091317] |  |  | 100 µM | inactive
OC[C@H]1NC[C@H](O)[C@@H](O)[C@@H]1O [DUVOGLUSTAT] | > 100 µM | > 100 µM | 250 µM | inactive
COc1ccc2cc1Oc1ccc(cc1)CCc1ccccc1-c1ccc(cc1OC)CC2 | 12 µM | 2.2 µM | 42 µM | inactive
COc1ccc2cc1Oc1ccc(cc1)CCc1ccccc1-c1ccc(cc1)CC2 | 41 µM | 7.6 µM | > 100 µM | inactive
O=c1c(-c2ccc(O)cc2)coc2cc(O)cc(O)c12 [GENISTEIN] | 22 µM | 31 µM | 100 µM | inactive
CCCCCCc1ccccc1N1C(=O)c2ccccc2C1=O |  |  | 24.7 µM | inactive
COc1cc2ccc1-c1ccccc1CCc1ccc(cc1)Oc1cccc(c1)CC2 | 11 µM | 2.5 µM | 67 µM | inactive
COc1ccc2c(c1)CCc1ccc(cc1)Oc1cc(ccc1OC)CCc1ccc-2c(OC)c1 | 14 µM | 2 µM | 49 µM | inactive
COc1ccc2c(c1)CCc1ccc(cc1)Oc1cccc(c1)CCc1ccc-2c(OC)c1 | 46 µM | 25 µM | > 30 µM | inactive
COc1ccc2c(c1)CCc1ccc(cc1)Oc1cc(ccc1OC)CCc1ccc-2cc1 | 26 µM | 3.6 µM | 40 µM | inactive
CC(C)CC[C@@H](O)[C@@H](C)[C@H]1CC[C@H]2[C@@H]3CC=C4C[C@@H](O)CC[C@]4(C)[C@H]3CC[C@]12C [22(R)-HYDROXYCHOLESTEROL] |  |  | 100 µM | inactive

These reach a lower IC50 [4]. Values come first.

IC50 [1] | IC50 [2] | IC50 [4] | SMILES | Activity [3]
6.6 µM | 4.9 µM | 9.9 µM | Oc1ccc2c(c1)CCc1ccc(cc1)Oc1cc(ccc1O)CCc1ccc-2c(O)c1 [RICCARDI C] | inactive
10 µM | 8.4 µM | 5.1 µM | Oc1ccc2c(c1)CCc1ccc(cc1)Oc1cccc(c1)CCc1ccc-2c(O)c1 | inactive
 |  | 4.8 µM | O=C(O)Cc1cccc(OCCCN(Cc2cccc(C(F)(F)F)c2Cl)CC(c2ccccc2)c2ccccc2)c1 | inactive
18 µM | 3.1 µM | 8 µM | CC(C)c1cccc(C(C)C)c1N1C(=O)c2ccccc2C1=S | inactive
13 µM | 6.6 µM | 8.6 µM | Oc1ccc2cc1Oc1ccc(cc1)CCc1ccccc1-c1ccc(cc1O)CC2 | inactive
7.3 µM | 3.2 µM | 19 µM | Oc1cc2ccc1-c1ccccc1CCc1ccc(cc1)Oc1cccc(c1)CC2 | inactive
77 µM | 7.1 µM | 18 µM | c1cc2cc(c1)Oc1ccc(cc1)CCc1ccccc1-c1ccc(cc1)CC2 [DEOXYRICCARDIN C] | inactive
14 µM | 5.7 µM | 15 µM | Oc1ccc2cc1Oc1ccc(cc1)CCc1ccccc1-c1ccc(cc1)CC2 | inactive
 |  | 16.2 µM | O=C1c2ccccc2C(=O)N1c1ccccc1CCc1ccccc1 | inactive
7.6 µM | 4.4 µM | 4.9 µM | Oc1ccc2c(c1)CCc1ccc(cc1)Oc1cc(ccc1O)CCc1ccc-2cc1 | inactive
